One data set deals with T1, human SMVT (SLC5A6) (Homo sapiens, UniProt Q9Y289).
T1 construct: The complete open reading frame of human SMVT (SLC5A6) was amplified; expressed in transfected cells; host or cells: Xenopus oocytes injected with 10-30 ng cRNA transcribed from the pMO plasmid
T1 sequence (Q9Y289 1-635): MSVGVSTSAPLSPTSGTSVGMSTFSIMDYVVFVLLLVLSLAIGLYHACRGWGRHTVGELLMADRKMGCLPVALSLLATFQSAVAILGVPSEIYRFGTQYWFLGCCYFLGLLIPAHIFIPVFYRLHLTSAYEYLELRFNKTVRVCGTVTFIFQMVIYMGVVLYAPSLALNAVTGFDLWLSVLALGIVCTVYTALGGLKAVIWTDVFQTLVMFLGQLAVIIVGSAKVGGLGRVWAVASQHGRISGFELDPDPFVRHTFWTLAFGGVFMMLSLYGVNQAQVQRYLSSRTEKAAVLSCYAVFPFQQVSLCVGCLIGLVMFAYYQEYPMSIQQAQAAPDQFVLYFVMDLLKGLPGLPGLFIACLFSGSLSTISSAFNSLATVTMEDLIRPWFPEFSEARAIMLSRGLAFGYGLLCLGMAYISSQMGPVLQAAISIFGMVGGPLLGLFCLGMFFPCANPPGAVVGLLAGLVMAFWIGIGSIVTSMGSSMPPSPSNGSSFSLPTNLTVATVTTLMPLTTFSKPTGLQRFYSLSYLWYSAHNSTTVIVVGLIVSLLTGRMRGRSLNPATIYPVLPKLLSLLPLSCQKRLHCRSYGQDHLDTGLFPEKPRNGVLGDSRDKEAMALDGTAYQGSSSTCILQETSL
The data set is described as follows: Two-electrode voltage-clamp transport currents in SMVT-expressing Xenopus oocytes. The class given is cell-based. As to conditions: for Vmax as a % of Biotin Vmax: % max response relative to biotin, transporter-expressing oocytes, test compound 0.5 mM. The source says: “Vmax” and “KM” of a compound for a transporter (e.g., the SMVT transporter) are defined in accordance with convention. Vmax is the number of molecules of compound transported per unit time at saturating concentration of the compound. KM is the concentration of the compound at which the compound is transported at half of Vmax. In general, a high value Of Vmax is desirable for a substrate of a transporter. A low value of KM is desirable for transport of low concentrations of a compound, and a high value of KM is desirable for transport of high concentrations of a compound. Vmax is affected both by the intrinsic turnover rate of a transporter (molecules/transporter protein) and transporter density in plasma membrane that depends on expression level. For these reasons, the intrinsic capacity of a compound to be transported by a particular transporter is usually expressed as the ratio (or percent) of the Vmax of the compound/Vmax of a control compound known to be a substrate for the transporter.
cRNA for oocyte expression was prepared by linearization of plasmid cDNA and in vitro transcription using T7 polymerase (Epicentre Ampliscribe kit). Xenopus oocytes were prepared and maintained as previously described (Collins et al., PNAS […]:5456-5460 (1997)) and injected with 10-30 ng RNA. Transport currents were measured 2-6 days later using two-electrode voltage-clamp (Axon Instruments). All experiments were performed using a modified oocyte ringers solution (90 mM NaCl, 2 mM KCl, 1.8 mM CaCl2, 1 mM MgCl2, and 10 mM NaHEPES, pH 7.4; in Na^+-free solutions […] choline chloride was substituted for NaCl). The membrane potential of oocytes was held at −60 mV and current traces acquired using PowerLab software (ADInstruments). Full 7-concentration dose-responses were performed for each compound. […] Half-maximal concentrations were calculated using non-linear regression curve fitting software (Prism) with the Hill co-efficient fixed to 1. To ensure that currents were specific for the over-expressed transporter, all compounds were tested against uninjected oocytes.

Data set [1] is described as follows: Caco-2 homogenate S9 stability. In kind it is in vitro ADME. As to conditions: Caco-2 S9 (0.5 mg protein per mL), 37° C, 5 μM. The method, then:
Caco-2 Homogenate S9 Stability: Caco-2 cells were grown for 21 days prior to harvesting. Culture medium was removed and cell monolayers were rinsed and scraped off into ice-cold 10 mM sodium phosphate/0.15 M potassium chloride, pH 7.4. Cells were lysed by sonication at 4° C. using a probe sonicator. Lysed cells were then transferred into 1.5 mL centrifuge vials and centrifuged at 9000 g for 20 min at 4° C. The resulting supernatant (Caco-2 cell homogenate S9 fraction) was aliquoted into 0.5 mL vials and stored at −80° C. until used.
For stability studies, conjugate (5 μM) was incubated in Caco-2 homogenate S9 fraction (0.5 mg protein per mL) for 60 min at 37° C. Concentrations of intact conjugate and released drug were determined at zero time and 60 minutes using LC/MS/MS.

A short description of data set [2]: In vitro cleavage of conjugate in rat plasma. The following applies: 37° C, 2.0 μM.
Experimental: (§1) The stability of conjugates were evaluated in one or more in vitro systems using a variety of tissue preparations following methods known in the art. […] Each preparation was incubated with test compound at 37° C. for one hour. Aliquots (50 μL) were removed at 0, 30, and 60 min and quenched with 0.1% trifluoroacetic acid in acetonitrile. Samples were then centrifuged and analyzed by LC/MS/MS.
Data set [3] can be described thus: In vitro cleavage of conjugate in rat liver S9. The following applies: Rat Liver S9 (0.5 mg/mL), NADPH, 37° C, 2.0 μM.
Experimental: as §1
A short description of data set [4]: In vitro cleavage of conjugate in human liver S9. As to conditions: Human Liver S9 (0.5 mg/mL), NADPH, 37° C, 2.0 μM.
Experimental: as §1
The subject of another data set is Pancreatin. The data set is described as follows: Pancreatin stability. The following applies: 1 % (w/v) pancreatin, pH 7.5, 37° C, 5 μM. In kind it is in vitro ADME, porcine. The method, then: Pancreatin Stability: Stability studies were conducted by incubating conjugate (5 μM) with 1 % (w/v) pancreatin (Sigma, P-1625, from porcine pancreas) in 0.025 M Tris buffer containing 0.5 M NaCl (pH 7.5) at 37° C. for 60 min. The reaction was stopped by addition of 2 volumes of methanol. After centrifugation at 14,000 rpm for 10 min, the supernatant was removed. and analyzed by LC/MS/MS.

Data set [5] is described as follows: In vitro cleavage of conjugate in human plasma. The following applies: 37° C, 2.0 μM.
Experimental: as §1
A short description of a further data set: in vivo. As to conditions: male, Sprague-Dawley, rat, po. The method, then:
Test compounds were administered as an intravenous bolus injection or by oral gavage to groups of four to six adult male Sprague-Dawley rats (weight approx 250 g) as solutions in water or water/ethanol (90:10). The doses ranged between 10 and 200 mg per kg body weight (i.e. 0.04-0.8 mmole/kg). Animals were fasted overnight before the study and for 4 hours post-dosing. Blood samples (1.0 mL) were obtained via a jugular vein cannula at intervals over 24 hours after oral dosing. Blood was processed immediately for plasma and plasma was frozen at −80° C. until analyzed.
Concentrations of test compound in plasma were determined using an API 2000 LC/MS/MS instrument equipped with an Agilent 1100 binary pump and an Agilent autosampler. The column was a Zorbax XDB C8 4.6*150 mm column at room temperature. The mobile phases were 0.1% formic acid (A) and acetonitrile with 0.1% formic acid (B). The gradient condition was: 5% B for 1 min, increasing to 98% B in 3 min and maintained for 2.5 min. […] The peaks were integrated using Analyst 1.1 quantitation software.
Oral bioavailability (F) was determined by comparison of the area under the concentration versus time curve (AUC) following oral administration of the conjugate or intravenous administration of the parent agent at equimolar doses.

For a further data set, the system named is human or rat SMVT. The following applies: voltage-clamped Xenopus oocytes; cited from earlier work.
For another data set, the target named is T2, hSMVT (Homo sapiens, UniProt Q9Y289).
T2 sequence (Q9Y289 1-635): T1 sequence (Q9Y289 1-635)
The data set is described as follows: Radiolabeled competition assay in SMVT-expressing CHO cells. The class given is cell-based. The source says:
The complete open reading frame of human SMVT (SLC5A6) was amplified from human cDNA prepared from intestinal mRNA. Gene-specific oligonucleotide primers were designed against Genbank sequences (NM-021095). Amplified PCR products were cloned into a modified version of the mammalian expression vector pcDNA3 (termed pMO) that was engineered to contain the 5′ and 3′ untranslated regions from the Xenopus beta-globin gene. All clones were completely sequenced and tested for function by transient transfection in HEK293 cells.
Stable clones of CHOK1 cells were obtained by electroporation, selection in G418, and single cell sorting using FACS ([…] cell sorting, Cytomation). Stable clones expressing SMVT were identified by enhanced uptake of radiolabeled substrates. For cell uptake studies, stable CHOK1 clones were seeded into polylysine coated 96-well microtiter plates and grown for 2-3 days. Cells were incubated with experimental solutions (combinations of radiolabeled and unlabeled compounds) for 30 minutes at room temperature, washed four times, and lysed in scintillation solution. Accumulation of radiolabeled molecules was measured in a microtiter scintillation plate reader (Perkin Elmer). Inhibition constants (IC50s) were calculated using curve-fitting software (Prism).

For data set [6] the following is noted: rat, 2 μM.
Experimental: as §1
The conditions of data set [7]: rat, 2 μM, pH 7.4.
Experimental: as §1
Where [8] appears, read: radiolabeled competition assay in SMVT-expressing CHO cells, read-out: IC50.

Read-outs that look alike come from different tables or passages of the source.

In the case of “N-acetyl-D-Lys(ε-biotin)-D-Arg-D-Arg-D-Arg-D-Gln-D-Arg-D-Arg-D-Lys-D-Lys-D-Arg-NH2 [biotinylated decapeptide, reference compound]”, the “specific sodium-dependent current (SMVT substrate activity)” value on human SMVT (SLC5A6) (20 μM peptide, presence and absence of 100 mM Na+) is listed as “no specific, sodium-dependent current”.
As to `CCC(=O)OC(OC(=O)NCC1(CC(=O)O)CCCCC1)C(C)C` (stereo not drawn) [(9), 1-{[(α-Propanoyloxyisobutoxy)carbonyl]aminomethyl}-1-Cyclohexane Acetic Acid], on human SMVT (SLC5A6), the “Vmax as a % of Biotin Vmax” value was 19%. Moreover, the “% of Drug Released from Conjugate after 60 min” value in [1] is listed as 65%; in data set [2], 69%; in data set [3] it was 62%; in [4], 83%; in the data set on Pancreatin, 25%; in data set [5], 7%.
Turning to `O=C(O)CCCC[C@@H]1SC[C@@H]2NC(=O)N[C@@H]21` [biotin], the “plasma concentration at the highest dose” value in the data set “in vivo” was roughly 4000 ng/mL. For the same molecule, the bioavailability (as a rule, dose-corrected exposure relative to a reference, in per cent) in the data set “in vivo” (25 mg/kg) came to 100%; in the data set “in vivo” (200 mg/kg) it was 27%. Further, in the data set on human or rat SMVT, the Michaelis-Menten constant (Km) (as a rule, the substrate concentration at which the rate is half of its maximum) is 5 to 20 µM.
As to `CC(C)(CO)[C@@H](O)C(=O)NCCC(=O)[O-].[Na+]` [pantothenate, sodium pantothenate], the “plasma concentration at the highest dose” value in the data set “in vivo” was roughly 4000 ng/mL. For the same molecule, the bioavailability worked out at 35% in “in vivo” (25 mg/kg) and 10% in the data set “in vivo” (200 mg/kg).
For `CC(C)(C)C(=O)OCOC(=O)NCC1(CC(=O)O)CCCCC1` [(1), 1-{[(α-Pivaloyloxymethoxy)carbonyl]aminomethyl}-1-Cyclohexane Acetic Acid], the “Vmax as a % of Biotin Vmax” value on human SMVT (SLC5A6) is 21%. The IC50 (commonly the concentration that inhibits the measured activity by half) at hSMVT (setting [8]) is 450 µM.
On to `CC(OC(=O)NCC1(CC(=O)O)CCCCC1)OC(=O)C(C)C` (stereo not drawn) [(6), 1-{[(α-Isobutanoyloxyethoxy)carbonyl]aminomethyl}-1-Cyclohexane Acetic Acid], for which the “Vmax as a % of Biotin Vmax” value at human SMVT (SLC5A6) is recorded as 46%. In addition, the “% of Drug Released from Conjugate after 60 min” value in [6] is 23%; in data set [7], 52%. Besides, the IC50 on hSMVT (setting [8]) amounted to 100 µM.
As to `NCC1(CC(=O)O)CCCCC1` [Gabapentin, reference compound], on human SMVT (SLC5A6), the “Vmax as a % of Biotin Vmax” value is given as 0%. Besides, the IC50 at hSMVT was greater than 500 µM.

The values are drawn from patent publication US20030158089A1, “Administrative agents via the SMVT transporter” (priority 2002, published 2003).
